Results from patent US20230203485A1, “METHODS FOR MODULATING MHC-I EXPRESSION AND IMMUNOTHERAPY USES THEREOF” (Dana-Farber Cancer Institute, Inc., priority 2020, published 2023).

Tested on: class I antigen presentation gene expression in MCC cell lines
Assay: RNA-seq / DESeq2 differential expression of MCC cell lines at baseline and after IFN-γ stimulation
Assay type: cell-based, human
Conditions: 11 MCC cell lines, baseline vs IFNγ; negative LFC = upregulation in IFNγ-treated
Procedure: FIG. 2A comprises RNA-seq heatmaps of class I antigen presentation gene expression in MCC lines and controls.
FIG. 2B is a volcano plot of differentially expressed genes (genes below FDR cutoff 0.01 are shown in yellow) between baseline and IFN-γ-treated MCC cell lines. Differential expression analysis was performed using DESeq2, and negative LFC indicates increased expression in +IFN-γ samples. IFN genes are highlighted in red.
RNA samples were first assessed for quality using the Agilent Bioanalyzer (DV200 metric). One hundred ng of RNA were used as the input for first strand cDNA synthesis using Superscript III reverse transcriptase and Illumina's TruSeq RNA Access Sample Prep Kit. Synthesis of the second strand of cDNA was followed by indexed adapter ligation with UMI (unique molecular index) adaptors. Subsequent PCR amplification enriched for adapted fragments. Amplified libraries were quantified, normalized, pooled, and hybridized with exome targeting oligos. Following hybridization, bead clean-up, elution and PCR was performed to prepare library pools for sequencing on Illumina flowcell lanes. Transcriptomes were sequenced to a coverage of at least 50 million reads in pairs.
Raw fastq files for fibroblast and keratinocyte control lines were downloaded from SRA using R Bioconductor package SRAdb (Mayakonda et al. (2018) supra; Zhu et al. (2013) BMC Bioinformatics 14 (1): 1-4) using accession codes SRP126422 (4 replicates from control samples ‘NN’) and SRP131347 (6 replicates with condition: control and genotype: control). These fastq files, along with those for the mkl1 and waga cell lines, were aligned using STAR version 2.7.3a (Dobin et al. (2013) Bioinformatics 29 (1): 15-21), using index genome reference file downloaded from ftp.ebi.ac.uk/pub/databases/gencode/Gencode_human/release_19/GRCh37.p13.genome.fa.gz, transcript annotation file downloaded from data.broadinstitute.org/snowman/hg19/star/gencode.v19.annotation.gtf, and with the following options: --twopassMode Basic, --outSAMstrandField intronMotif, --alignIntronMax 1000000, --alignMatesGapMax 1000000, --sjdbScore 2, --outSAMtype BAM Unsorted, --outSAMattributes NH HI NM MD AS XS, --outFilterType BySJout, --outSAMunmapped Within, --genomeLoad NoSharedMemory, --outFilterScoreMinOverLread 0, --outFilterMatchNminOverLread 0, --outFilterMismatchNmax 999, and outFilterMultimapNmax 20. Duplicates were marked with picard MarkDuplicates version 2.22.0-SNAPSHOT.
RNA-sequencing bam files for MCC tumor and cell line samples were downloaded from the Broad Genomics Firecloud/Terra platform using the Google Cloud Storage command line tool gsutil version 4.5 (github.com/GoogleCloudPlatform/gsutil/).
Gene counts were obtained from bam files using featureCounts version 2.0.0 (doi.org/10.1093/bioinformatics/btt656). Very lowly expressed genes with average count across samples less than 1 were excluded from analysis. Between-sample distance metrics were computed using the Euclidean distance on the vectors of variance-stabilized counts obtained from the vst function in the DESeq2 R Bioconductor package ([…]; Love et al. (2014) Genome Biology 15 (12): 550).
Differential expression analysis was carried out between (1) viral positive and viral negative samples (adjusting for cell line or tumor as a covariate), (2) cell line and tumor samples (adjusting for viral status as a covariate), and (3) IFNγ plus and minus samples (adjusting for viral status as a covariate) using the negative binomial GLM Wald test of DESeq2, where significance was assessed using the p-values adjusted for multiple comparisons under default settings. To account for potential global gene expression differences among sample groups, RUVg (Risso et al. (2014) […] 32 (9): 896-902) was used to estimate latent factors of unwanted variation from the list of housekeeping genes downloaded from www.tau.ac.il/˜elieis/HKG/HK_genes.txt. […]

In the case of “IFN-y: type II interferon, recombinant human, used to treat MCC cells”, the “log2FoldChange FBXO6 (ENSG00000116663.6)” value is reported as −2.854, the “log2FoldChange FREM3 (ENSG00000183090.5)” value is reported as −4.873 and the “log2FoldChange FZD5 (ENSG00000163251.3)” value is reported as −1.098. For the same substance, the “log2FoldChange GBP1 (ENSG00000117228.9)” value was −10.1, the “log2FoldChange GBP1P1 (ENSG00000225492.2)” value was −7.927 and the “log2FoldChange GBP2 (ENSG00000162645.8)” value was −6.235. The “log2FoldChange GBP3 (ENSG00000117226.7)” value was −9.215, the “log2FoldChange GBP4 (ENSG00000162654.8)” value was −10.33 and the “log2FoldChange GBP5 (ENSG00000154451.10)” value was −5.854. For the same substance, the “log2FoldChange HCP5 (ENSG00000206337.6)” value was −5.131, the “log2FoldChange HELB (ENSG00000127311.5)” value was −1.463 and the “log2FoldChange HERC5 (ENSG00000138646.4)” value was −2.156. For the same substance, the “log2FoldChange HERC6 (ENSG00000138642.10)” value was −9.027, the “log2FoldChange HLA-A (ENSG00000206503.7)” value was −3.702 and the “log2FoldChange HLA-B (ENSG00000234745.5)” value was −4.921. For the same substance, the “log2FoldChange HLA-C (ENSG00000204525.10)” value was −4.155, the “log2FoldChange HLA-DMA (ENSG00000204257.10)” value was −3.237 and the “log2FoldChange HLA-DMB (ENSG00000242574.4)” value was −5.727. For the same substance, the “log2FoldChange HLA-DOA (ENSG00000204252.8)” value was −7.789, the “log2FoldChange HLA-DOB (ENSG00000241106.2)” value was −3.598 and the “log2FoldChange HLA-DPA1 (ENSG00000231389.3)” value was −9.303. The “log2FoldChange HLA-DPB1 (ENSG00000223865.6)” value was −7.613, the “log2FoldChange HLA-DQB1 (ENSG00000179344.12)” value was −7.335 and the “log2FoldChange HLA-DRA (ENSG00000204287.9)” value was −10.07. The “log2FoldChange HLA-DRB1 (ENSG00000196126.6)” value was −7.278, the “log2FoldChange HLA-DRB5 (ENSG00000198502.5)” value was −5.98 and the “log2FoldChange HLA-E (ENSG00000204592.5)” value was −2.608. For the same substance, the “log2FoldChange HLA-F (ENSG00000204642.9)” value was −7.289, the “log2FoldChange HLA-G (ENSG00000204632.7)” value was −3.367 and the “log2FoldChange HLA-H (ENSG00000206341.6)” value was −3.883. For the same substance, the “log2FoldChange HLA-J (ENSG00000204622.6)” value was −4.551, the “log2FoldChange HLA-L (ENSG00000243753.1)” value was −2.336 and the “log2FoldChange IDO1 (ENSG00000131203.8)” value was −5.825. For the same substance, the “log2FoldChange IFI6 (ENSG00000126709.10)” value was −2.328, the “log2FoldChange IFI16 (ENSG00000163565.14)” value was −5.946 and the “log2FoldChange IFI44 (ENSG00000137965.6)” value was −8.954. For the same substance, the “log2FoldChange IFI44L (ENSG00000137959.11)” value was −7.733, the “log2FoldChange IFIH1 (ENSG00000115267.5)” value was −4.034 and the “log2FoldChange IFIT1 (ENSG00000185745.8)” value was −3.465. For the same substance, the “log2FoldChange IFIT2 (ENSG00000119922.7)” value was −6.152, the “log2FoldChange IFIT3 (ENSG00000119917.9)” value was −9.398 and the “log2FoldChange IFITM1 (ENSG00000185885.11)” value was −8.763. The “log2FoldChange IFITM3 (ENSG00000142089.11)” value was −7.436, the “log2FoldChange IFNB1 (ENSG00000171855.5)” value was −3.53 and the “log2FoldChange IL7 (ENSG00000104432.8)” value was −3.753. The “log2FoldChange IL15 (ENSG00000164136.12)” value was −6.781, the “log2FoldChange IL15RA (ENSG00000134470.15)” value was −6.483 and the “log2FoldChange IL17RC (ENSG00000163702.14)” value was −1.188. For the same substance, the “log2FoldChange IL18BP (ENSG00000137496.13)” value was −1.497, the “log2FoldChange INPPI (ENSG00000151689.8)” value was −1.931 and the “log2FoldChange IRF1 (ENSG00000125347.9)” value was −5.385. The “log2FoldChange IRF2 (ENSG00000168310.6)” value was −1.588, the “log2FoldChange ISG15 (ENSG00000187608.5)” value was −3.824 and the “log2FoldChange ITK (ENSG00000113263.8)” value was −4.656. The “log2FoldChange KCNIP4 (ENSG00000185774.10)” value was −2.647, the “log2FoldChange KDR (ENSG00000128052.8)” value was −7.174 and the “log2FoldChange KIAA0040 (ENSG00000235750.5)” value was −3.216. The “log2FoldChange LAP3 (ENSG00000002549.8)” value was −1.871, the “log2FoldChange LGALS12 (ENSG00000133317.10)” value was −4.156 and the “log2FoldChange LIPT1 (ENSG00000144182.12)” value was −0.5688. The “log2FoldChange LOC154761 (ENSG00000253882.2)” value was −3.161, the “log2FoldChange LY75 (ENSG00000054219.9)” value was −2.87 and the “log2FoldChange MAJIN (ENSG00000168070.7)” value was −3.183. The “log2FoldChange MOB3C (ENSG00000142961.10)” value was −1.494, the “log2FoldChange MOV10 (ENSG00000155363.14)” value was −1.652 and the “log2FoldChange MTMR9LP (ENSG00000220785.3)” value was −0.5387. For the same substance, the “log2FoldChange NOD1 (ENSG00000106100.6)” value was −1.317, the “log2FoldChange NRIR (ENSG00000225964.1)” value was −3.724 and the “log2FoldChange NUB1 (ENSG00000013374.11)” value was −1.521. For the same substance, the “log2FoldChange NUGGC (ENSG00000189233.7)” value was −3.265, the “log2FoldChange OPTN (ENSG00000123240.12)” value was −1.482 and the “log2FoldChange PARP3 (ENSG00000041880.10)” value was −1.726. The “log2FoldChange PARP9 (ENSG00000138496.12)” value was −5.112, the “log2FoldChange PARP10 (ENSG00000178685.9)” value was −3.43 and the “log2FoldChange PARP12 (ENSG00000059378.8)” value was −2.758. The “log2FoldChange PARP14 (ENSG00000173193.9)” value was −9.512, the “log2FoldChange PARP15 (ENSG00000173200.8)” value was −3.778 and the “log2FoldChange PLA2G16 (ENSG00000176485.6)” value was −2.531.
